From US11207379B2, “Peptides with anti-cancer activity” (IDP DISCOVERY PHARMA, S.L., priority 2016, dated 2021)
Numbered stars: 1 amine (or outer) side, 2 acyl side, 3 side chain; on linkers, the order of the positions; unused ones are H or OH. Bridge positions count the residues as written; N and C are the ends. Square brackets hold non-standard residues; d marks the D form. Ends that are not written are not given here. Peptide text beside a SMILES is read from it. ξ: configuration not given here. ξαMeNle(6-ylidene) = CC(CCCC=[*:3])(N[*:1])C(=O)[*:2]; X1 = CC(CCCCCCC=[*:3])(N[*:1])C(=O)[*:2]; Suc = O=C(CCC(=O)[*:2])[*:1]

What was measured:
[1] = target: MM.1S, B Lymphoblast (multiple myeloma); assay: Viability assay (MTT, Alamar Blue, hexosaminidase), 72 h; assay type: cell-based
Experimental: MM.1S, B Lymphoblast (multiple myeloma), ATCC: CRL-2974
(§1) Cell lines A549, MCF-7 and RAMOS were cultured in incubator under CO2 (6%) at 37° C. in DMEM high glucose (Dulbecco's Modified Eagle Solution, Gibco-BRL 31966-21) medium with 10% fetal bovine serum inactivated (FBS) (Gibco-BRL 10106-169). Cell lines HL-60 and MM.1S were cultured in incubator at 37° C. in RPMI-1640 (Sigma R8758) medium with 10% of fetal bovine serum inactivated (FBS) and 2 mM glutamine (Sigma G7513). Cell lines BJ were cultured in incubator under CO2 (6%) at 37° C. in Eagle's Minimum Essential Medium (Sigma, M-2279) with 10% fetal bovine serum inactivated (FBS) (Gibco-BRL 10106-169).
(§2) During the amplification step and the assays adherent cells were rinsed with DPBS (Dulbecco's Phosphate Buffered Saline, Sigma D1283) three times and afterward treated for 5 minutes with trypsin ([…]) (Gibco-BRL, 15400054) in solution of DPBS at 37° C., and, once detached, transferred in the culturing medium. No-adherent cells were centrifuged and transferred in the culturing medium. Cells were counted in a Neubauer chamber after labelling with Tripan-Blue.
(§3) A549, MCF-7 and JB cells were seeded at a density of 5000 cells/well and HL-60, MM.1S and Ramos at 10000 cells/well in 100 μl of medium in 96 well plates. After 24 h, the compounds to be tested were added to calculate the dose/response curve at the starting concentration of 100 μM with serial dilutions (1:1). Controls are the untreated cells. Each experiment was performed in triplicate.
(§4) Cells were incubated during 72 h in incubator under CO2 atmosphere at 37° C. Cell viability was measured by means of MTT (3-(4,5-dimethylthiazol-2-yl)-2.5-diphenyltetrazolium bromide) assay, Alamar Blue® (Biosource DAL1100) and Hexosaminidase activity test, consecutively, following manufacturer instructions.
(§5) MTT: 1. Stock solution of MTT (475989 Calbiochem) was 5 mg/ml in PBS 1×. As negative control (experiment noise) 3 wells were treated with 20 μl/well of a solution of SDS 10% in H2O. The same control was used for Alamar Blue/Hexosaminidase. 10 μl/well of MTT solution were added and the plate was incubated for 3-4 hr. The medium was discarded and 100 μl of extracting buffer (PBS 1×, 15% SDS, 50% […] N,N-Dimethylformamide, pH 4.7) were added to each well. Plates were incubated for 16 h at room temperature under orbital shaking. Absorbance at 570 nm was finally measured.
(§6) Alamar Blue: 10 μl Alamar Blue solution was added to each well and the plates were incubated for […] in the incubator. Fluorescence ratio at 535/590 (excitation/emission) was measured in Cytofluor (Millipore) fluorimeter. Blank control was determined by lysis of untreated cells with con 2% of Triton X100, right before adding Alamar Blue solution.
(§7) Hexosaminidase activity test: after Alamar Blue lecture, medium was discarded and plates were rinsed once with PBS. 60 μl hexosaminidase substrate (p-nitrophenol-N-acetyl-beta-D-glucosamide 7.5 mM [Sigma N-9376], sodium citrate 0.1 M, pH 5.0, 0.25% Triton X-100) was added to each well and the plates were incubated at 37° C. for 2-5 h, according to the cell type (hexosaminidase activity changes according to the cell type). […] Blank control was the same as described before.
(§8) Data analysis was performed calculating the percentage of cell viability normalized vs. the values of negative control, which was considered equal to 100%. The dose/response curve was fitted through the sigmoidal equation dose-response (variable slope) and the EC50 values were calculated as follow: Y=Bottom+(Top−Bottom)/(1+10^{[(Log EC50−X)*HillSlope]},

[2] = target: HL-60, promyeloblast (acute myelocytic leukemia, AML); assay: as above; assay type: cell-based
Experimental: HL-60, promyeloblast (acute myelocytic leukemia, AML), ECACC: 98070106
as §1, §2, §3, §4, §5, §6, §7, §8

[3] = target: RAMOS, B lymphocyte (Burkitt's Lymphoma); assay: as above; assay type: cell-based
Experimental: RAMOS, B lymphocyte (Burkitt's Lymphoma), ATCC: CRL-1596
as §1, §2, §3, §4, §5, §6, §7, §8

[4] = target: MCF-7, epithelial (breast cancer); assay: as above; assay type: cell-based
Experimental: MCF-7, epithelial (breast cancer), ECACC: 86012803
as §1, §2, §3, §4, §5, §6, §7, §8

several tumor cell lines = assay: Anticancer activity in viability assay, stated in words; assay type: cell-based
Experimental: as §3, §4, §8

[5] = target: A549, epithelial (lung cancer); assay: Viability assay (MTT, Alamar Blue, hexosaminidase), 72 h; assay type: cell-based
Experimental: A549, epithelial (lung cancer), ATCC:CCL-185
as §1, §2, §3, §4, §5, §6, §7, §8

[6] = Stability test in human plasma, 37 °C, UPLC-MS/MS; assay type: in vitro ADME
Experimental: Reagents: ACN LC-MS (Scharlab AC03712500); MeOH LC-MS (Scharlab ME03262500); IPA LC-MS (Scharlab AL03262500); HCOOH (Carlo Erba 405792); DPBS (Lonza BE17-512F); human plasma with EDTAK2 as anticoagulant were provided by Centre d'Investigació de Medicaments located at the Hospital de la Santa Creu i Sant Pau, C/. Sant Antoni Maria Claret 167, Pavelló Sant Frederic, 08025 Barcelona. Plasma was extracted from a healthy patient on 1 Feb. 2015. It was kept at −20° C. until the experiment day.
A calibration curve of eight non-zero concentration levels (from P1 to P8) was prepared in a concentration interval from 5 to 100 μM for S09. One blank sample of DPBS was also included. All calibration samples were analysed in duplicate. Calibration standard samples were prepared by addition of 30 μL of each calibration solution (from P1 to P8 and blank) to 270 μL of human plasma. Samples for incubation were prepared adding 15 μL of 1 mM solution of S09 to 135 μL of human plasma (final concentration 100 μM). 15 samples were prepared. Samples were incubated at 37° C. for 0, 0.5, 2, 6 and 24 h (three replicates were prepared for each incubation time).
An aliquot of 125 μL human plasma sample (blank, calibration standards and incubation samples) were processed using Sirocco™ Protein Precipitation plates (Waters). 375 μL of ACN were added to each well of the Sirocco plate. Then the samples were filtered applying vacuum (8-10 mm Hg) for about 5 minutes. The filtrates were evaporated under a steady stream of nitrogen (40° C.) and reconstituted with 150 μL of MeOH:H2O 0.1% HCOOH for analysis. Samples were analyzed by UPLC(ACQUITY Ultra Performance LC-MS/MS(API 3000).
UPLC conditions (X-Bridge C18 column; Pump A: H2O with 0.1% formic acid; Pump B Acetonitrile with 0.1% formic acid) using a linear gradient 5%-95% of B in 8 minutes (R. T.=5.95). The mean (out of 3 experiments) of the normalized percentage integrated area corresponding to the peak of S09 at different time are reported in table 11 below.

CC(C)C[C@H](NC(=O)[C@H](C)NC(=O)[C@H](C)NC(=O)[C@H](Cc1ccccc1)NC(=O)[C@H](CO)NC(=O)[C@H](CCCNC(=N)N)NC(=O)[C@H](CCCCN)NC(=O)[C@H](CC(C)C)NC(=O)[C@H](CCC(=O)O)NC(=O)[C@H](CC(N)=O)NC(=O)[C@H](CCCNC(=N)N)NC(=O)[C@H](CCCNC(=N)N)NC(=O)[C@H](CCC(N)=O)NC(=O)[C@H](CCCNC(=N)N)NC(=O)CCC(=O)O)C(=O)N[C@@H](CCCNC(=N)N)C(=O)N[C@@H](CC(=O)O)C(=O)N[C@@H](CCC(N)=O)C(=O)O [IDP-L12] (Suc-RQRRNELKRSFAALRDQ-OH; N-terminus and C-terminus assumed)
EC50 [1]: > 100 µM
EC50 [2]: > 100 µM
EC50 [3]: > 100 µM
EC50 [4]: > 100 µM
anticancer activity (active / inactive) (several tumor cell lines): inactive

CC(C)C[C@H](NC(=O)[C@H](C)NC(=O)[C@H](C)NC(=O)[C@H](Cc1ccccc1)NC(=O)[C@H](C)NC(=O)[C@H](CCCNC(=N)N)NC(=O)[C@H](CCCCN)NC(=O)[C@H](CC(C)C)NC(=O)[C@H](CCC(=O)O)NC(=O)[C@H](CC(N)=O)NC(=O)[C@H](CCCNC(=N)N)NC(=O)[C@H](CCCNC(=N)N)NC(=O)[C@H](CCC(N)=O)NC(=O)[C@H](CCCNC(=N)N)NC(=O)CCC(=O)O)C(=O)N[C@@H](CCCNC(=N)N)C(=O)N[C@@H](CC(=O)O)C(=O)N[C@@H](CCC(N)=O)C(=O)O [IDP-L13, RQRRNELKRAFAALRDQ] (Suc-RQRRNELKRAFAALRDQ-OH; N-terminus and C-terminus assumed)
EC50 [1]: > 100 µM
EC50 [2]: > 100 µM
EC50 [3]: > 100 µM
EC50 [4]: > 100 µM
anticancer activity (active / inactive) (several tumor cell lines): inactive

CC[C@H](C)[C@H](NC(=O)[C@H](Cc1ccc(O)cc1)NC(=O)[C@H](C)NC(=O)[C@H](CC(C)C)NC(=O)[C@H](C)NC(=O)[C@H](CCCCN)NC(=O)[C@H](CCCCN)NC(=O)[C@H](Cc1ccccc1)NC(=O)[C@@H](NC(=O)[C@@H](NC(=O)[C@@H](NC(=O)[C@H](CCCCN)NC(=O)[C@@H]1CCCN1)[C@@H](C)CC)C(C)C)[C@@H](C)CC)C(=O)O [IDP-L14α, Pro-Lys-Val-Val-Ile-Leu-Lys-Lys-Ala-Thr-Ala-Tyr-Ile]
EC50 [1]: > 100 µM
EC50 [2]: > 100 µM
EC50 [5]: > 100 µM
EC50 [3]: > 100 µM
EC50 [4]: > 100 µM
anticancer activity (active / inactive) (several tumor cell lines): inactive

CC[C@H](C)[C@H](NC(=O)[C@H](Cc1ccc(O)cc1)NC(=O)[C@H](C)NC(=O)C1(C)CCCC=CCCCCCCC(C)(NC(=O)[C@H](CCCCN)NC(=O)[C@@H]2CCCN2C(=O)[C@H](C)N)C(=O)N[C@@H](C(C)C)C(=O)N[C@@H]([C@@H](C)CC)C(=O)N[C@@H](CC(C)C)C(=O)N[C@@H](CCCCN)C(=O)N[C@@H](CCCCN)C(=O)N[C@@H](C)C(=O)N1)C(=O)N[C@@H](CC(C)C)C(=O)N[C@@H](CO)C(=O)O (some centres unmarked) [IDP-S09, APKXVILKKAXAYILS-OH] (H-APK[X1]VILKKA[ξαMeNle(6-ylidene)]AYILS-OH; staple 4-11; N-terminus assumed)
% Remaining of active metabolyte (mean) ([6]; 100 μM, incubation time 0 h): 0%
% Remaining of starting compound (mean) ([6]; 100 μM, incubation time 0 h): 100%
% Remaining of active metabolyte (mean) ([6]; 100 μM, incubation time 2 h): 0%
% Remaining of active metabolyte (mean) ([6]; 100 μM, incubation time 6 h): 0%
% Remaining of active metabolyte (mean) ([6]; 100 μM, incubation time 24 h): 0%
remaining at 2 h, 100 μM ([6]; human plasma (EDTA-K2), incubation time 2 h, read-out: % Remaining of starting compound (mean)): 106 ± 4.9%
remaining at 6 h, 100 μM ([6]; human plasma (EDTA-K2), incubation time 6 h, read-out: % Remaining of starting compound (mean)): 90 ± 16%
remaining at 24 h, 100 μM ([6]; human plasma (EDTA-K2), incubation time 24 h, read-out: % Remaining of starting compound (mean)): 97 ± 10%

NELKRSFFALRDQ-OH [IDP-L10, NELKRSFFALRDQ]
EC50 [1]: > 100 µM
EC50 [2]: > 100 µM
EC50 [3]: > 100 µM
EC50 [4]: > 100 µM
anticancer activity (active / inactive) (several tumor cell lines): inactive
